# Laboratory results from the supplement of paper PMC10307832.
# Compound: C[C@@H](C(=O)N[C@@H](C1CCCCC1)C(=O)N2CCC[C@H]2C(=O)N[C@@H]3[C@@H](CC4=CC=CC=C34)OCC#CC#CCO[C@@H]5CC6=CC=CC=C6[C@@H]5NC(=O)[C@@H]7CCCN7C(=O)[C@H](C8CCCCC8)NC(=O)[C@H](C)NC)NC [AZD5582]
# Test: relative viability (nuclei count vs DMSO), 5 days (fraction); higher = more cells survive
# Conditions: 0.001581 µM
# Procedure, shortened: (§1)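 MetaXpress counted nuclei in 4× images of lung cancer cell lines that had been fixed, permeabilised and Hoechst-stained in one step. Before that, cells in 1536-well plates were kept overnight at 37 °C, pinned with five √10-spaced library-drug doses on vehicle-anchored plates, and cultured 5 days without medium change. Viability takes treated-well nuclei over vehicle-well nuclei and uses the median across plates. Plates were accepted only at control CV below 25% and at least one doubling.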
row,Cell Line,relative viability
1,NCI-H460,0.958
2,NCI-H520,0.955
3,NCI-H596,0.84
4,NCI-H647,0.904
5,NCI-H650,0.842
6,NCI-H661,0.984
7,NCI-H727,1.02
8,NCI-H838,0.895
9,NCI-H1299,1
10,NCI-H1355,0.902
11,NCI-H1395,0.866
12,NCI-H1437,0.915
13,NCI-H1563,0.957
14,NCI-H1650,0.87
15,NCI-H1651,0.932
16,NCI-H1666,0.886
17,NCI-H1734,0.968

row,Cell Line,relative viability
1,NCI-H1755,0.939
2,NCI-H1792,0.754
3,NCI-H1793,0.897
4,NCI-H1915,0.899
5,NCI-H1944,0.867
6,NCI-H1975,1
7,NCI-H1993,0.758
8,NCI-H2009,0.916
9,NCI-H2023,0.842
10,NCI-H2085,1.05
11,NCI-H2087,0.98
12,NCI-H2126,0.93
13,NCI-H2170,0.956
14,NCI-H2228,1.01
15,NCI-H2347,0.956
16,NCI-H2405,1

# Same assay, conditions: 0.005 µM
row,Cell Line,relative viability
1,NCI-H358,1.17
2,NCI-H460,0.991
3,NCI-H520,1.05
4,NCI-H647,0.971
5,NCI-H650,0.982
6,NCI-H661,1
7,NCI-H727,1.01
8,NCI-H838,1.09
9,NCI-H1299,1.02
10,NCI-H1355,1.01
11,NCI-H1395,1
12,NCI-H1437,1
13,NCI-H1563,0.936
14,NCI-H1650,1.05
15,NCI-H1651,1.01
16,NCI-H1666,0.953
17,NCI-H1734,1.11

row,Cell Line,relative viability
1,NCI-H1755,0.99
2,NCI-H1792,0.971
3,NCI-H1793,1.05
4,NCI-H1915,1
5,NCI-H1944,1.04
6,NCI-H1975,1.13
7,NCI-H1993,1.1
8,NCI-H2009,1.09
9,NCI-H2023,0.962
10,NCI-H2085,1.08
11,NCI-H2087,1.12
12,NCI-H2126,1.04
13,NCI-H2170,0.985
14,NCI-H2228,1.05
15,NCI-H2347,1.03
16,NCI-H2405,1.12

# Same assay, conditions: 0.01581 µM
row,Cell Line,relative viability
1,NCI-H358,0.944
2,NCI-H460,0.965
3,NCI-H520,0.947
4,NCI-H596,0.999
5,NCI-H647,0.865
6,NCI-H650,0.542
7,NCI-H661,0.984
8,NCI-H727,0.858
9,NCI-H838,0.785
10,NCI-H1299,1
11,NCI-H1355,0.771
12,NCI-H1437,0.979
13,NCI-H1563,0.836
14,NCI-H1650,0.899
15,NCI-H1651,0.952
16,NCI-H1666,0.971
17,NCI-H1734,1.03

row,Cell Line,relative viability
1,NCI-H1755,0.946
2,NCI-H1792,0.712
3,NCI-H1793,0.822
4,NCI-H1915,0.805
5,NCI-H1944,0.921
6,NCI-H1975,0.944
7,NCI-H1993,0.957
8,NCI-H2009,0.943
9,NCI-H2023,0.84
10,NCI-H2085,0.998
11,NCI-H2087,0.982
12,NCI-H2126,0.808
13,NCI-H2170,0.987
14,NCI-H2228,0.942
15,NCI-H2347,0.919
16,NCI-H2405,0.957

# Same assay, conditions: 0.05 µM
row,Cell Line,relative viability
1,NCI-H358,0.972
2,NCI-H460,1.1
3,NCI-H520,1.1
4,NCI-H596,0.358
5,NCI-H647,0.957
6,NCI-H650,0.564
7,NCI-H661,1.07
8,NCI-H727,0.979
9,NCI-H838,0.975
10,NCI-H1299,0.991
11,NCI-H1355,0.823
12,NCI-H1395,0.988
13,NCI-H1437,0.983
14,NCI-H1563,1.07
15,NCI-H1650,0.759
16,NCI-H1651,1.13
17,NCI-H1666,0.94

row,Cell Line,relative viability
1,NCI-H1734,1.23
2,NCI-H1755,1.05
3,NCI-H1792,1.21
4,NCI-H1793,0.797
5,NCI-H1915,0.947
6,NCI-H1944,1.01
7,NCI-H1975,1.2
8,NCI-H1993,1
9,NCI-H2009,0.988
10,NCI-H2023,0.934
11,NCI-H2085,0.993
12,NCI-H2087,1.03
13,NCI-H2126,0.901
14,NCI-H2170,0.989
15,NCI-H2228,0.538
16,NCI-H2347,0.979
17,NCI-H2405,1.02

# Compound: Cn1nnc2c(C(N)=O)ncn2c1=O [Temozolomide]
# Test: as above
# Conditions: 0.2 µM
# Procedure, shortened: as §1
row,Cell Line,relative viability
1,NCI-H358,0.855
2,NCI-H460,1.02
3,NCI-H520,1.06
4,NCI-H596,0.932
5,NCI-H647,1
6,NCI-H650,1.01
7,NCI-H661,0.993
8,NCI-H727,0.83
9,NCI-H838,0.948
10,NCI-H1299,1.03
11,NCI-H1355,1.01
12,NCI-H1395,1
13,NCI-H1437,0.998
14,NCI-H1563,0.903
15,NCI-H1650,0.955
16,NCI-H1651,0.983

row,Cell Line,relative viability
1,NCI-H1666,0.92
2,NCI-H1734,1.12
3,NCI-H1755,1.08
4,NCI-H1792,1.22
5,NCI-H1915,1.09
6,NCI-H1944,0.946
7,NCI-H1975,1.01
8,NCI-H1993,0.866
9,NCI-H2009,1.05
10,NCI-H2023,0.979
11,NCI-H2085,1
12,NCI-H2087,1.31
13,NCI-H2126,0.957
14,NCI-H2228,1.19
15,NCI-H2347,1.06
16,NCI-H2405,1.05

# Same assay, conditions: 0.6325 µM
row,Cell Line,relative viability
1,NCI-H358,1.02
2,NCI-H460,0.998
3,NCI-H520,0.999
4,NCI-H596,0.953
5,NCI-H647,1.01
6,NCI-H650,0.975
7,NCI-H661,0.935
8,NCI-H727,0.923
9,NCI-H838,1.02
10,NCI-H1299,1.04
11,NCI-H1355,0.985
12,NCI-H1395,0.96
13,NCI-H1437,1.01
14,NCI-H1563,0.937
15,NCI-H1650,0.938
16,NCI-H1651,0.997
17,NCI-H1666,0.994

row,Cell Line,relative viability
1,NCI-H1734,1.05
2,NCI-H1755,0.971
3,NCI-H1792,1.02
4,NCI-H1793,0.919
5,NCI-H1915,0.987
6,NCI-H1944,0.959
7,NCI-H1975,1.01
8,NCI-H1993,0.968
9,NCI-H2009,1.01
10,NCI-H2023,0.943
11,NCI-H2085,1.02
12,NCI-H2087,1.12
13,NCI-H2126,1.03
14,NCI-H2170,1.06
15,NCI-H2228,0.928
16,NCI-H2347,1.16
17,NCI-H2405,1

# Same assay, conditions: 2 µM
row,Cell Line,relative viability
1,NCI-H358,1
2,NCI-H460,1
3,NCI-H520,1.13
4,NCI-H596,1.01
5,NCI-H647,0.906
6,NCI-H650,1.02
7,NCI-H661,1.04
8,NCI-H727,1.13
9,NCI-H838,1.02
10,NCI-H1299,1.07
11,NCI-H1355,1.06
12,NCI-H1395,0.906
13,NCI-H1437,0.997
14,NCI-H1563,0.999
15,NCI-H1650,0.933
16,NCI-H1651,0.984
17,NCI-H1666,0.906

row,Cell Line,relative viability
1,NCI-H1734,1.06
2,NCI-H1755,1.04
3,NCI-H1792,1.07
4,NCI-H1793,0.918
5,NCI-H1915,0.946
6,NCI-H1944,1.04
7,NCI-H1975,1.09
8,NCI-H1993,0.953
9,NCI-H2009,1.05
10,NCI-H2023,1.01
11,NCI-H2085,1.02
12,NCI-H2087,1.07
13,NCI-H2126,1.05
14,NCI-H2170,1
15,NCI-H2228,1.15
16,NCI-H2347,1.08
17,NCI-H2405,1.06

# Same assay, conditions: 6.325 µM
row,Cell Line,relative viability
1,NCI-H358,0.904
2,NCI-H460,1.03
3,NCI-H520,0.981
4,NCI-H596,0.925
5,NCI-H647,0.684
6,NCI-H650,0.974
7,NCI-H661,0.947
8,NCI-H727,0.798
9,NCI-H838,0.928
10,NCI-H1299,1.03
11,NCI-H1355,0.947
12,NCI-H1395,0.745
13,NCI-H1437,1.04
14,NCI-H1563,0.99
15,NCI-H1650,0.952
16,NCI-H1651,0.997
17,NCI-H1666,0.751

row,Cell Line,relative viability
1,NCI-H1734,0.932
2,NCI-H1755,0.965
3,NCI-H1792,0.854
4,NCI-H1793,0.87
5,NCI-H1915,0.602
6,NCI-H1944,0.919
7,NCI-H1975,0.919
8,NCI-H1993,0.944
9,NCI-H2009,0.923
10,NCI-H2023,0.984
11,NCI-H2085,0.964
12,NCI-H2087,0.937
13,NCI-H2126,0.98
14,NCI-H2170,0.858
15,NCI-H2228,0.881
16,NCI-H2347,0.979
17,NCI-H2405,0.935

# Same assay, conditions: 20 µM
row,Cell Line,relative viability
1,NCI-H358,0.777
2,NCI-H460,1.1
3,NCI-H520,0.97
4,NCI-H596,0.959
5,NCI-H647,0.265
6,NCI-H650,0.913
7,NCI-H661,0.843
8,NCI-H727,0.805
9,NCI-H838,0.986
10,NCI-H1299,1.03
11,NCI-H1355,0.982
12,NCI-H1395,0.867
13,NCI-H1437,1.02
14,NCI-H1563,0.993
15,NCI-H1650,0.773
16,NCI-H1651,0.993
17,NCI-H1666,0.76

row,Cell Line,relative viability
1,NCI-H1734,0.976
2,NCI-H1755,0.818
3,NCI-H1792,1.07
4,NCI-H1793,0.636
5,NCI-H1915,0.386
6,NCI-H1944,0.816
7,NCI-H1975,0.957
8,NCI-H1993,0.758
9,NCI-H2009,1.06
10,NCI-H2023,0.941
11,NCI-H2085,0.949
12,NCI-H2087,1.01
13,NCI-H2126,1.03
14,NCI-H2170,0.582
15,NCI-H2228,1.05
16,NCI-H2347,0.976
17,NCI-H2405,0.978
